# Source: ChEMBL document CHEMBL1177694, “Multivalent catanionic GalCer analogs derived from first generation dendrimeric phosphonic acids” (Bioorg Med Chem, 2010)
# Key:
# [1] = Cytotoxicity against human CEM-SS cells after 5 days by MTT assay; type: cell-based
# [2] = tested on: Human immunodeficiency virus 1; test: Antiviral activity against HIV1 LAI infected in human CEM-SS cells assessed as inhibition of viral replication after 5 days by MTT assay; type: functional, organism-based; details: Human immunodeficiency virus 1, LAI, 120 h
# [3] = Therapeutic index, ratio of CC50 for human CEM-SS cells to IC50 for HIV1 LAI infected in human CEM-SS cells; type: cell-based; details: CEM-SS cells (uninfected and infected with HIV1 LAI), read-out: Ratio CC50/IC50
SMILES,CC50 at 120 h [1],IC50 [2],selectivity ratio [3]
CCCCCCCCCCCCCCCCNOC(CO)C(O)C(OC1OC(CO)C(O)C(O)C1O)C(O)CO.CCCCCCCCCCCCCCCCNOC(CO)C(O)C(OC1OC(CO)C(O)C(O)C1O)C(O)CO.CCCCCCCCCCCCCCCCNOC(CO)C(O)C(OC1OC(CO)C(O)C(O)C1O)C(O)CO.CCCCCCCCCCCCCCCCNOC(CO)C(O)C(OC1OC(CO)C(O)C(O)C1O)C(O)CO.CCCCCCCCCCCCCCCCNOC(CO)C(O)C(OC1OC(CO)C(O)C(O)C1O)C(O)CO.CCCCCCCCCCCCCCCCNOC(CO)C(O)C(OC1OC(CO)C(O)C(O)C1O)C(O)CO.CN(/N=C/c1ccc(OP2(Oc3ccc(/C=N/N(C)P(=S)(Oc4ccc(C(O)P(=O)(O)O)cc4)Oc4ccc(C(O)P(=O)(O)O)cc4)cc3)=NP(Oc3ccc(/C=N/N(C)P(=S)(Oc4ccc(C(O)P(=O)(O)O)cc4)Oc4ccc(C(O)P(=O)(O)O)cc4)cc3)(Oc3ccc(/C=N/N(C)P(=S)(Oc4ccc(C(O)P(=O)(O)O)cc4)Oc4ccc(C(O)P(=O)(O)O)cc4)cc3)=NP(Oc3ccc(/C=N/N(C)P(=S)(Oc4ccc(C(O)P(=O)(O)O)cc4)Oc4ccc(C(O)P(=O)(O)O)cc4)cc3)(Oc3ccc(/C=N/N(C)P(=S)(Oc4ccc(C(O)P(=O)(O)O)cc4)Oc4ccc(C(O)P(=O)(O)O)cc4)cc3)=N2)cc1)P(=S)(Oc1ccc(C(O)P(=O)(O)O)cc1)Oc1ccc(C(O)P(=O)(O)O)cc1 (centres undefined),1200 nM,210 nM,4
CN(/N=C/c1ccc(OP2(Oc3ccc(/C=N/N(c4ccc(CCN(CP(=O)(O)O)CP(=O)(O)O)cc4)P(O)(=S)Oc4ccc(CCN(CP(=O)(O)O)CP(=O)(O)O)cc4)cc3)=NP(Oc3ccc(/C=N/N(C)P(=S)(Oc4ccc(CCN(CP(=O)(O)O)CP(=O)(O)O)cc4)Oc4ccc(CCN(CP(=O)(O)O)CP(=O)(O)O)cc4)cc3)(Oc3ccc(/C=N/N(C)P(=S)(Oc4ccc(CCN(CP(=O)(O)O)CP(=O)(O)O)cc4)Oc4cccc(CCN(CP(=O)(O)O)CP(=O)(O)O)c4)cc3)=NP(Oc3ccc(/C=N/N(C)P(=S)(Oc4ccc(CCN(CP(=O)(O)O)CP(=O)(O)O)cc4)Oc4ccc(CCN(CP(=O)(O)O)CP(=O)(O)O)cc4)cc3)(Oc3ccc(/C=N/N(C)P(=S)(Oc4ccc(CCN(CP(=O)(O)O)CP(=O)(O)O)cc4)Oc4ccc(CCN(CP(=O)(O)O)CP(=O)(O)O)cc4)cc3)=N2)cc1)P(=S)(Oc1ccc(CCN(CP(=O)(O)O)CP(=O)(O)O)cc1)Oc1ccc(CCN(CP(=O)(O)O)CP(=O)(O)O)cc1 (centres undefined),> 100000 nM,20000 nM,> 5
CN(/N=C/c1ccc(OP2(Oc3ccc(/C=N/N(C)P(=S)(Oc4ccc(/C=C/P(=O)(O)O)cc4)Oc4ccc(/C=C/P(=O)(O)O)cc4)cc3)=NP(Oc3ccc(/C=N/N(C)P(=S)(Oc4ccc(/C=C/P(=O)(O)O)cc4)Oc4ccc(/C=C/P(=O)(O)O)cc4)cc3)(Oc3ccc(/C=N/N(C)P(=S)(Oc4ccc(/C=C/P(=O)(O)O)cc4)Oc4ccc(/C=C/P(=O)(O)O)cc4)cc3)=NP(Oc3ccc(/C=N/N(C)P(=S)(Oc4ccc(/C=C/P(=O)(O)O)cc4)Oc4ccc(/C=C/P(=O)(O)O)cc4)cc3)(Oc3ccc(/C=N/N(C)P(=S)(Oc4ccc(/C=C/P(=O)(O)O)cc4)Oc4ccc(/C=C/P(=O)(O)O)cc4)cc3)=N2)cc1)P(=S)(Oc1ccc(/C=C/P(=O)(O)O)cc1)Oc1ccc(/C=C/P(=O)(O)O)cc1,> 100000 nM,650 nM,> 153
